Earlier results, collected in US20070048250A1, “Methods of treating concomitant constipation in a cancer treatment regimen including imexon” (AmpliMed Corporation, priority 2005, published 2007).

Key:
dogs = details: numerous studies; cited from earlier work
rats = details: numerous studies; cited from earlier work
[1] = test system: fresh human tumor cell lines; details: cited from earlier work
mast cell tumors = details: dog, in vivo; cited from earlier work
transplanted tumors = details: in vivo; cited from earlier work
[2] = test system: human lymphoma, melanoma, and prostate cancer cell lines; details: mouse, in vivo; cited from earlier work
[3] = combined with cisplatin, dacarbazine, melphalan, cytarabine, 5-fluorouracil, gemcitabine, or docetaxel; cited from earlier work

## N=C1NC(=O)N2CC12 (centres unmarked) [imexon, 4-imino-1,3-diazabicyclo[3.1.0]-hexan-2-one]
dogs
  gastrointestinal lesions on pathologic examination: not shown evidence of gastrointestinal lesions
rats
  gastrointestinal lesions on pathologic examination: not shown evidence of gastrointestinal lesions
[1]
  activity against fresh human tumor cell lines in clonogenic assay: active
[1]; multiple myeloma
  cytotoxicity to multiple myeloma in the clonogenic assay: selective cytotoxicity
Mast cell tumors
  tumor response in dogs with mast cell tumors: Objective responses have been observed
Transplanted tumors
  activity against a variety of transplanted tumors in rodents: active
[2]
  activity against human lymphoma, melanoma, and prostate cancer cell lines in SCID mice: active
[3]
  effect of combination: synergistic therapeutic cytotoxic effect
